Laboratory results reported in ChEMBL document CHEMBL3351364 (J Med Chem, 2014).

Experiments:
[1] = Half life in Sprague-Dawley rat at 1 mg/kg, iv as 30 mins infusion; assay type: ADME, organism-based; parameters: dose 1 mg/kg, route intravenous; settings: in vivo
[2] = Half life in beagle dog at 1 mg/kg, iv as 30 mins infusion; assay type: ADME, organism-based, Canis lupus familiaris; parameters: dose 1 mg/kg, route intravenous; settings: in vivo
[3] = Oral bioavailability in beagle dog at 1 mg/kg; assay type: ADME, organism-based, Canis lupus familiaris; settings: in vivo
[4] = Cmax in monkey at 5 mg/kg, po; assay type: ADME, organism-based, Macaca mulatta; parameters: dose 5 mg/kg, route oral; settings: rhesus monkey, in vivo
[5] = Oral bioavailability in monkey at 5 mg/kg; assay type: ADME, organism-based, Macaca mulatta; settings: rhesus monkey, in vivo
[6] = Half life in monkey at 1 mg/kg, iv as 30 mins infusion; assay type: ADME, organism-based, Macaca mulatta; parameters: dose 1 mg/kg, route intravenous; settings: rhesus monkey, in vivo
[7] = Oral bioavailability in Sprague-Dawley rat at 2 mg/kg; assay type: ADME, organism-based; settings: in vivo

## c1cc2oc(-c3ccc(-c4ncc([C@@H]5CCCN5)[nH]4)cc3)cc2cc1-c1cnc([C@@H]2CCCN2)[nH]1
[1]
  half-life: 120 min
[2]
  half-life: 462 min
[3]
  bioavailability: 108%
[4]
  Cmax: 180 nM
[5]
  bioavailability: 12%
[6]
  half-life: 180 min
[7]
  bioavailability: 38%
